Like-named read-outs stand apart in the source and are kept apart here. Marks after values point to notes of the source that are not given here.
Tests used:
guinea pigs [1] = assay: Effect on the flow rate of urine in guinea pigs, single or combined use, Experimental Example 4; format: in vivo, Hartley male guinea pigs; details: guinea pig; for Improvement (%): 10 minutes after administration
Text: Effect on the flow rate of urine by single or combined use of Compounds of Reference Examples, distigmine, prazosin, and tamsulosin was examined using Hartley male guinea pigs. Four to six Hartley male guinea pigs weighing about 350 g (SLC) were employed in each treated group. Guinea pigs were anesthetized with urethane, and held, and the bladder was exposed. Two polyethylene tubes (PE-100) were inserted into the bladder. One of the tubes was used in infusion of physiological saline, and the other used for measurement of the internal pressure of the bladder. Saline was infused continuously at a flow rate of 0.3 mL/min. The infusion was stopped at the time when intermittent urination was confirmed at least 3 times, and the whole saline in bladder was removed. Again, infusion was started, and stopped at the time when a rise of the pressure in bladder was confirmed immediately before urination. Excreted urine was weighed on an electronic force balance (HX-400, A&D). Analogue data of the internal pressure of the bladder and urine weight were input in an AD converter (MP-30, Biopac Systems) and the digital signal was analyzed by means of purpose-made software (Student lab pro 2.1.5, Biopac Systems). Sampling interval of the date was fixed at 0.1 second, and the value of urine weight was differentiated to determine the flow rate of urine. In order to remove data noise of the excretion volume and flow rate of urine, the data was adapted to a lowcut filter at 0.5 Hz.
Measurement was made 2 times before administration of the test compound, and then the test compound was administered intravenously. Again, measurement was made 10 minutes after administration of the test compound.
The average measured value before administration of the test compounds was regarded as the value before administration, and the rate of change of the values from the ante-administration to the post-administration was calculated to compare between the groups by means of the Dunnet's test.

[2] = biological target: T1, acetylcholinesterase of human erythrocyte origin (Homo sapiens, UniProt P22303); assay: Measurement of acetylcholinesterase-inhibiting action (acetylthiocholine / Ellman method), Experimental Example 1; format: biochemical; details: at least 3 experiments
T1 construct: Acetylcholinesterase of human erythrocyte origin (Sigma Chemical Co.); purchased Sigma Chemical Co; host or cells: human erythrocytes (natural source)
T1 sequence (P22303 32-617 isoform P22303-2 limits assumed): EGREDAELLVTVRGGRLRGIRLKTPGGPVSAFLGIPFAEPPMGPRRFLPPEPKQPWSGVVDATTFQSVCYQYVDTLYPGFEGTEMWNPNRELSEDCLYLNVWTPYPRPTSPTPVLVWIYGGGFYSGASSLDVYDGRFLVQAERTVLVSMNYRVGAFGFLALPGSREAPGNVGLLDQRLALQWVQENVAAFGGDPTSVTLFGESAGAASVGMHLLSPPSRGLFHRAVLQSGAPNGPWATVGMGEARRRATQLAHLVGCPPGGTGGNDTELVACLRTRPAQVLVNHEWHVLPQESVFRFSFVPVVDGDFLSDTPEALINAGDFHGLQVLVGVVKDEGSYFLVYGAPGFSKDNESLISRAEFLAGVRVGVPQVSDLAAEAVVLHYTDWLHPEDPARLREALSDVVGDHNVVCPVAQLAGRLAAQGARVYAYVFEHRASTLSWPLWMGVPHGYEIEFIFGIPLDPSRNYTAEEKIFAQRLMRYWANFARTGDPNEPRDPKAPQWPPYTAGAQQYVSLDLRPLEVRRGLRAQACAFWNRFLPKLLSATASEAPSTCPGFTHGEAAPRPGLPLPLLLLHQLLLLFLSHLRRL
Description: Acetylcholinesterase-inhibiting action of the compounds disclosed in Reference Examples was measured using acetylcholinesterase of human erythrocyte origin according to the acetylthiocholine method (Ellman method).
Acetylcholinesterase of human erythrocyte origin (Sigma Chemical Co.) was dissolved in distilled water at a concentration of 0.2 IU/mL to give an enzyme authentic sample. To a 96-well microplate was dispensed 20 μL of drug solution, 30 μL of 80 mM Tris-HCl (pH 7.4), 50 μL of enzyme authentic sample and 50 μL of 5 mM 5,5-dithio-bis(2-nitrobenzoic acid) (Sigma Chemical Co.), and the plate was shaken for 10 seconds. Then, 50 μL of acetylthiocholine iodide (Sigma Chemical Co.) was added, and the plate was again shaken. Immediately after shaking, increase of extinction at […] was measured at intervals of 30 seconds for 10 minutes. The enzyme activity was determined according to the following equation.
The experiment was repeated at least 3 times for each compound to obtain 50% inhibitory concentration (IC50). Moreover, in the same manner as mentioned above, acetylcholinesterase-inhibiting activity of distigmine was measured.

urinary bladder = assay: Potentiation effect for rhythmic contraction of urinary bladder in guinea pig, Experimental Example 2; format: in vivo, Hartley male guinea pigs; details: Cavia porcellus, iv, read-out: AUC200 (mg/kg, i.v.)
Description: Potentiation effect of the compounds disclosed in Reference Examples for rhythmic contraction of urinary bladder was examined using Hartley male guinea pigs. Hartley male guinea pigs (SLC) weighing about 300 g were anesthetized with urethane (1.2 g/kg, i.p.), held, and incised at the midline of abdomen to expose the bladder. The urethra was ligated, and a polyethylene tube (PE-50) was inserted into the bladder. The internal pressure of the bladder was measured with a blood pressure amplifier (Nippon Koden), and the data was collected on a personal computer through an A/D converter (MP-30, Biopac Systems). A proper amount of physiological saline was injected into the bladder through a cannula to induce rhythmic contraction of the to bladder.
The area (AUC) that is formed by a curve of the internal pressure of the bladder and a base line was calculated through analytical software (Studentlab pro 2.1.5, Biopac Systems) to evaluate the effect of the test compounds. The curve of the internal pressure is made based on the bladder contraction immediately before administration of the test compound and the first contraction 5 minutes after the administration. From the dose-dependent curve of AUC, the dose at which AUC before drug administration was increased 2 times (AUC200) was calculated to determine potency of contraction-enhancing effect of the test compounds for the muscle of urinary bladder. In addition, the potency of contraction-enhancing effect of […] for the muscle of bladder was determined in the same manner as mentioned above.

guinea pigs [3] = assay: Effect on urination efficiency in guinea pigs, Experimental Example 3; format: in vivo, Hartley male guinea pigs; details: guinea pig; for Efficiency of Urination (%) Before adm.: before administration; for Efficiency of Urination (%) After adm. / Improvement of Efficiency (%): 10 minutes after administration
Text: Effect of the compounds of Reference Examples on urination efficiency was examined using Hartley male guinea pigs. Six to ten Hartley male guinea pigs weighing 346.5±3.5 g (SLC) were employed in each treated group. Guinea pigs were anesthetized with urethane, and held, and the bladder was exposed. Two polyethylene tubes (PE-50 and PE-100) were inserted into the bladder. One (PE-50) of the tubes was used in infusion of physiological saline, and the other (PE-100) was used for measurement of the internal pressure of the bladder. Saline was infused continuously at a flow rate of 0.3 mL/min. The infusion was stopped at the time when intermittent urination was confirmed at least 3 times, and the whole saline in bladder was removed. Again, infusion was started, and stopped at the time when a rise of the pressure in bladder was confirmed immediately before urination, and the time required for infusion and the weight of excreted urine were measured. Efficiency of urination was calculated from the following equation. Efficiency of urination (%)=100×Excreted volume (mL)/Infusion time (min)×0.3 (mL/min)
Measurement was made at least 2 times before administration of the test compound, and then the test compound was dissolved in distilled water and administered intravenously. […] Effect by administration of solvents was also confirmed.
The average measured value before administration of the test compounds was regarded as the value before administration, and applied to the paired-t test for a significant difference test with the value after the administration. (** p<0.01, * p<0.05)

[4] = urethane-anesthetized guinea pig, dose at which AUC of bladder internal pressure before drug administration was increased 2 times

For `COc1cc2nc(N3CCN(C(=O)c4ccco4)CC3)nc(N)c2cc1OC` [Prazosin], the “Flow Rate (mL/sec) Ante-admn.” value (guinea pigs [1]; prazosin 0.1 mg/kg i.v. group, before administration (Table 8)) was 0.18 ± 0.03 mL/s, the “Flow Rate (mL/sec) Post-admn.” value (guinea pigs [1]; prazosin 0.1 mg/kg i.v., 10 minutes after administration (Table 8)) was 0.17 ± 0.02 mL/s and the “Improvement (%)” value (guinea pigs [1]; prazosin 0.1 mg/kg i.v., control DMSO (Table 8)) was 0.97 ± 10.32%.

`N#Cc1cccc(CN2CCC(CCC(=O)c3cc4c5c(c3)CCN5C(=O)CC4)CC2)c1` [Reference Example 1] was tested, and the IC50 [2] was 13.6 nM and the ED (2-fold bladder contraction AUC) (urinary bladder; [4]) was 0.005 mg/kg.

For `O=C(CCC1CCN(Cc2cccc(F)c2)CC1)c1cc2c3c(c1)CCN3C(=O)CC2` [Reference Example 15, 8-[3-[1-[(3-fluorophenyl)methyl]-4-piperidinyl]-1-oxopropyl]-1,2,5,6-tetrahydro-4H-pyrrolo[3,2,1-ij]quinolin-4-one], the IC50 [2] was 4.4 nM, the ED (2-fold bladder contraction AUC) (urinary bladder; [4]) was 0.0013 mg/kg and the “Efficiency of Urination (%) Before adm.” value (guinea pigs [3]; 0.003 mg/kg i.v. group) was 71.5 ± 7.9%. For the same compound, the “Efficiency of Urination (%) After adm.” value (guinea pigs [3]; 0.003 mg/kg i.v.) was 79.6 ± 6.4%, the “Improvement of Efficiency (%)” value (guinea pigs [3]; 0.003 mg/kg i.v.) was 16.2% and the “Efficiency of Urination (%) Before adm.” value (guinea pigs [3]; 0.01 mg/kg i.v. group) was 60.0 ± 7.7%. The “Efficiency of Urination (%) After adm.” value (guinea pigs [3]; 0.01 mg/kg i.v.) was 93.9 ± 3.0%, the “Improvement of Efficiency (%)” value (guinea pigs [3]; 0.01 mg/kg i.v.) was 77.0** % and the “Efficiency of Urination (%) Before adm.” value (guinea pigs [3]; 0.03 mg/kg i.v. group) was 65.5 ± 9.0%. The “Efficiency of Urination (%) After adm.” value (guinea pigs [3]; 0.03 mg/kg i.v.) was 88.9 ± 3.1%, the “Improvement of Efficiency (%)” value (guinea pigs [3]; 0.03 mg/kg i.v.) was 66.2* % and the “Flow Rate (mL/sec) Ante-admn.” value (guinea pigs [1]; Ref. Ex. 15 0.001 mg/kg i.v. group, before administration (Table 9)) was 0.17 ± 0.03 mL/s. The “Flow Rate (mL/sec) Post-admn.” value (guinea pigs [1]; Ref. Ex. 15 0.001 mg/kg i.v., 10 minutes after administration (Table 9)) was 0.15 ± 0.02 mL/s, the “Improvement (%)” value (guinea pigs [1]; Ref. Ex. 15 0.001 mg/kg i.v., control distilled water (Table 9)) was −6.5 ± 12.1% and the “Flow Rate (mL/sec) Ante-admn.” value (guinea pigs [1]; Ref. Ex. 15 0.01 mg/kg i.v. group, before administration (Table 8)) was 0.27 ± 0.03 mL/s. For the same compound, the “Flow Rate (mL/sec) Post-admn.” value (guinea pigs [1]; Ref. Ex. 15 0.01 mg/kg i.v., 10 minutes after administration (Table 8)) was 0.29 ± 0.05 mL/s and the “Improvement (%)” value (guinea pigs [1]; Ref. Ex. 15 0.01 mg/kg i.v., control DMSO (Table 8)) was 6.81 ± 7.84%.

With `O=C(CCC1CCN(Cc2ccccc2)CC1)c1cc2c3c(c1)CCN3C(=O)CC2` [Reference Example 17, 8-[3-[1-(phenylmethyl)-4-piperidinyl]-1-oxopropyl]-1,2,5,6-tetrahydro-4H-pyrrolo[3,2,1-ij]quinolin-4-one] the IC50 [2] was 7.8 nM and the ED (2-fold bladder contraction AUC) (urinary bladder) was 0.0034 mg/kg.

With `CCOc1ccccc1OCCN[C@H](C)Cc1ccc(OC)c(S(N)(=O)=O)c1` [Tamsulosin] the “Flow Rate (mL/sec) Ante-admn.” value (guinea pigs [1]; tamsulosin 0.1 mg/kg i.v. group, before administration (Table 9)) was 0.16 ± 0.01 mL/s, the “Flow Rate (mL/sec) Post-admn.” value (guinea pigs [1]; tamsulosin 0.1 mg/kg i.v., 10 minutes after administration (Table 9)) was 0.14 ± 0.02 mL/s and the “Improvement (%)” value (guinea pigs [1]; tamsulosin 0.1 mg/kg i.v., control distilled water (Table 9)) was −11.8 ± 4.8%.

With `O=C(CCC1CCN(Cc2cccc(Cl)c2)CC1)c1cc2c3c(c1)CCN3C(=O)CC2` [compound 4] the IC50 [2] was 10.9 nM and the ED (2-fold bladder contraction AUC) (urinary bladder; [4]) was 0.005 mg/kg.

Compound `Cc1cccc(CN2CCC(CCC(=O)c3cc4c5c(c3)CCN5C(=O)CC4)CC2)c1` [compound 6] has an IC50 [2] of 18.9 nM and an ED (2-fold bladder contraction AUC) (urinary bladder; [4]) of 0.0049 mg/kg.

In the case of `Cc1ccccc1CN1CCC(CCC(=O)c2cc3c4c(c2)CCN4C(=O)CC3)CC1` [compound 7], the IC50 [2] is reported as 22.1 nM and the ED (2-fold bladder contraction AUC) (urinary bladder; [4]) is reported as 0.0055 mg/kg.

In the case of `O=C(CCC1CCN(Cc2cccc([N+](=O)[O-])c2)CC1)c1cc2c3c(c1)CCN3C(=O)CC2` [compound 12], the IC50 [2] is reported as 8.1 nM and the ED (2-fold bladder contraction AUC) (urinary bladder; [4]) is reported as 0.006 mg/kg.

`O=C(CCC1CCN(Cc2ccccc2O)CC1)c1cc2c3c(c1)CCN3C(=O)CC2` [compound 13] showed an IC50 [2] of 5.2 nM and an ED (2-fold bladder contraction AUC) (urinary bladder; [4]) of 0.0013 mg/kg.

`O=C(CCC1CCN(Cc2ccccc2Cl)CC1)c1cc2c3c(c1)CCN3C(=O)CC2` [compound 14] was tested, and the IC50 [2] was 9.9 nM and the ED (2-fold bladder contraction AUC) (urinary bladder; [4]) was 0.0016 mg/kg.

For `O=C(CCC1CCN(Cc2ccccc2)CC1)c1cc2c3c(c1)CC(=O)N3CCC2` [compound 18], the IC50 [2] was 10.9 nM and the ED (2-fold bladder contraction AUC) (urinary bladder) was 0.0051 mg/kg.

For `Nc1c2c(nc3ccccc13)CCCC2` [compound 30], the “Efficiency of Urination (%) Before adm.” value (guinea pigs [3]; 0.3 mg/kg i.v. group (Ref. Ex. 30)) was 62.2 ± 5.1%, the “Efficiency of Urination (%) After adm.” value (guinea pigs [3]; 0.3 mg/kg i.v.) was 74.5 ± 5.1% and the “Improvement of Efficiency (%)” value (guinea pigs [3]; 0.3 mg/kg i.v.) was 22.0** %. For the same compound, the “Efficiency of Urination (%) Before adm.” value (guinea pigs [3]; 1.0 mg/kg i.v. group (Ref. Ex. 30)) was 62.8 ± 7.8%, the “Efficiency of Urination (%) After adm.” value (guinea pigs [3]; 1.0 mg/kg i.v.) was 84.9 ± 4.8% and the “Improvement of Efficiency (%)” value (guinea pigs [3]; 1.0 mg/kg i.v.) was 55.4* %. For the same compound, the “Efficiency of Urination (%) Before adm.” value (guinea pigs [3]; 3.0 mg/kg i.v. group (Ref. Ex. 30)) was 65.8 ± 8.9%, the “Efficiency of Urination (%) After adm.” value (guinea pigs [3]; 3.0 mg/kg i.v.) was 89.0 ± 2.7% and the “Improvement of Efficiency (%)” value (guinea pigs [3]; 3.0 mg/kg i.v.) was 64.2* %.
